The term AUC(0-inf) denotes total exposure, with the tail of the curve extrapolated. Usually Cmax stands for the highest concentration seen after dosing. One may read the cell viability as a read-out of living cells in per cent, often relative to untreated cells. The low end stands for a greater loss of cells, the high end for better survival.

Structures can show the parent of a compound that is named as a salt.

For data set [1] the following is noted: stated without reference, cited from earlier work.
Data set [2] is described as follows: Pharmacokinetics in adult male SD rats. The data set is classed as in vivo, rat. Conditions: 6 mg/kg; for AUC(0-inf) / Cmax: male, Sprague-Dawley, rat, plasma.
The subject of the next data set is MCT induced PAH rats. As to the kind of experiment: Acute hemodynamic efficacy in MCT induced PAH rats. The data set is classed as in vivo, rat. To be noted: 3 mg/kg.
Data set [3] can be described thus: Short-term lung toxicity, bronchoalveolar lavage. To be noted: 12 hrs. It counts as in vivo, rat.
Setting [4] is: 0.1% SDS, compared with CAR-micelles and plain drug.

With `O=S(=O)(c1cccc2cnccc12)N1CCCNCC1` [Fasudil, Fasudil hydrochloride], the solubility in methanol result in data set [1] (methanol) is listed as “moderately soluble”. Further, the solubility in water in data set [1] (water) was roughly 200 mg/mL. For the same compound, the “time after which no plasma concentration was shown” value in data set [2] (IT) is 6 h; in data set [2] (IV), 2 h. For the same compound, the results for the AUC(0-inf) in data set [2] (inhaled or intranasal) and in data set [2] (iv) were 21700 ± 4080 ng·h/mL and 27600 ± 3910 ng·h/mL, respectively. In addition, the results for the Cmax in data set [2] (inhaled or intranasal) and in data set [2] (iv) were 1450 ± 580 ng/mL and 3780 ± 230 ng/mL, respectively. Further, the “reduction in MPAP, IT versus IV” value in the data set with MCT induced PAH rats (plain fasudil IT) is given as “more pronounced reduction in MPAP than IV fasudil”. Moreover, the “reduction in MSAP” value in the data set with MCT induced PAH rats (plain fasudil IV and IT) is “significant reduction”.
On to `CCCCCCCCCCCCOS(=O)(=O)[O-].[Na+]` [SDS, sodium dodecyl sulfate], for which, in the data set with rat PASM cells, the cell viability is reported as roughly 16%. Further, in data set [3] (setting [4]), the “ALP level in BAL fluid” value is “elevated levels” and the “LDH level in BAL fluid” value is given as “elevated levels”. Further, the “wet lung weight compared to saline treated rats” value in data set [3] (intratracheal, CAR-micelles equivalent to 6 mg/kg fasudil, SDS 0.1%) is recorded as “two-fold”.

(Values after article PMC5360416 (Journal of pharmaceutical sciences, 2014).)
